Data: patent US20240317689A1, “POTASSIUM CHANNEL MODULATOR, COMPOSITION AND APPLICATION” (NEUSHEN THERAPEUTICS (SHANGHAI) CO., LTD, priority 2021, published 2024)

Key:
KCNQ2/3 = molecular target: T1, KCNQ2/3 (Homo sapiens, UniProt O43525+O43526); assay: Half-maximal activation voltage left shift assay (whole-cell patch clamp, hKCNQ-CHO cells); format: cell-based
T1 construct: expressed in transfected cells; host or cells: CHO cells (hKCNQ-CHO)
Procedure: Example 65: Half-Maximal Activation Voltage Left Shift Assay
hKCNQ-CHO cells were cultured at 37° C. in a humidified environment of 5% CO2.
• a) Extracellular fluid (mM): NaCl 145, KCl 4, CaCl2 2, MgCl2 1, Glucose 10, HEPES 10. The pH value of the extracellular fluid was adjusted to 7.4 with NaOH, and the osmotic pressure was adjusted to about 295 mOsm. • b) Intracellular fluid (mM): KOH 31.25, KCl 120, EGTA 10, MgCl2 1.75, CaCl2 5.374, HEPES 10, Na-ATP 4. The pH value of the intracellular fluid was adjusted to 7.4 with HCl, and the osmotic pressure was adjusted to about 285 mOsm. • c) The extracellular fluid should be prepared once a week, and the intracellular fluid should be aliquoted and stored at −20° C. after preparation.
The model positive reference compound Retigabine (RTG) was dissolved with 100% DMSO and configured as a 10 mM working solution. The test compounds were dissolved with 100% DMSO and configured as a 10 mM working solution. The final concentration of DMSO in the test solution should be less than 0.3%.
Whole-cell patch clamp was performed at room temperature. The electrical signals recorded with the EPC 10 USB amplifier (HEKA Elektronik, Germany) were filtered by a 3 kHz low-pass filter, and finally recorded in PatchMaster 2×90.5 software (HEKA Elektronik, Germany). At this step, the quality control standard was that the cell high-resistance sealing was greater than 500 MOhms, and the detection current was greater than 0.4 nA.
The recording electrodes were pulled out and polished with a vertical puller (NARISHIGE PC-10, Japan) using a borosilicate glass capillary (GC150tF-10, Harvard Apparatus Co., UK). At this step, the quality control standard was that the electrode resistance was between 2 MΩ and 5 MΩ.
During the recording process of the whole-cell patch clamp, a continuous perfusion system (BT100-2J, LongerPump, China) was used to continuously perfuse the extracellular fluid. The perfusion system was installed on the stage of an upright microscope (FN-S2N, Nikon, Japan), and the perfusion head was manually positioned under the microscope.
The voltage command for detecting the amplitude of hKCNQ current was as follows: the cell was clamped from a potential of −80 mV, stepped to −120 mV, and then clamped continuously at increasing voltages of 10 mV per sweep until +60 mV, held for 1500 ms; and then the clamping voltage was lowered to −120 my and held for 500 ms; finally, the voltage returned to the clamping potential of −80 mV. The detection voltage command was repeated every 15,000 milliseconds, and the command was continuously executed during the compound test. The half-maximal voltage of the cell's hKCNQ was obtained by nonlinear fitting of the current amplitude at different clamping potentials (−120 mV to +60 mV).
Data analysis was performed using PatchMaster 2×90.5 software (HEKA Elektronik, Germany) and Excel 2013 (Microsoft, USA) software. For each cell's patch clamp recording, the half-maximal voltage (V½-test) of hKCNQ corresponding to the test compound concentration should be obtained. The left-shifted half-maximal voltage value ΔV½ (V1/2 Shift (mV)) was obtained by subtracting the half-maximal voltage of hKCNQ before compound action (V½-control) from V½-test.

[1] = test system: MES-induced epilepsy in mice; assay: MES mouse epilepsy model; format: in vivo; conditions: 5 mpk, electrical stimulation 30 minutes after administration
Procedure: Example 67: MES Mouse Epilepsy Model
• 1. The mice (10 mice per group) were transferred to the operating room to adapt to the environment 30 minutes before the experiment. • 2. The mice were administered the test compounds or positive drug (Valproate) at a specific time point. 30 minutes after the administration of Valproate or 30 minutes after the administration of the test compounds, electrical stimulation was given with ear electrodes. The stimulation parameters were a square wave with a total duration of 0.8 seconds, a frequency of 50 Hz, and an amplitude of 50 mA with an interval of 10 msec. • 3. The number and duration of hind limb tonic extension of the animal within 1 minute after the completion of the electrical stimulation was recorded, and the possible death and time of death were also recorded. • 4. After administration, the possible side effects induced by the drug were observed and recorded, and the side effects are divided into four levels: • None: Normal • Mild sedation • Moderate sedation • Severe sedation

[2] = molecular target: T2, KCNQ2/3 potassium ion channel (Homo sapiens, UniProt O43525+O43526); assay: KCNQ2/3 potassium ion channel activation assay (whole-cell patch clamp, hKCNQ-CHO cells); format: cell-based; conditions: read-out: Enhancment % (current enhancement multiple)
T2 construct: expressed in transfected cells; host or cells: CHO cells (hKCNQ-CHO)
How it was run: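 Whole-cell patch clamp at room temperature in hKCNQ-CHO cells, pH 7.4 bath and pipette solutions, DMSO <0.3%. Enhancement = (Itest − Icontrol)/Icontrol.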

[3] = Blood-brain barrier permeability assay in mice (brain concentration after intragastric administration); format: in vivo; conditions: 5 mg/kg, brain tissue homogenate
Procedure: Administration Dosage of 5 mg/kg
The drug was prepared in proportion (solvent: 5% DMSO+5% Solutol+90% normal saline) to make a solution with a concentration of 0.5 mg/mL, and the mice were subjected to intragastric administration at 0.1 mL/10 g, with 3 mice per group in parallel.
After the mice were administered, the mice were anesthetized and perfused with normal saline through the heart, dissected to collect the brain tissue. The brain tissue was washed with normal saline, dried, weighed, and transferred to a 2 mL EP tube, added with normal saline according to brain tissue: normal saline=1:1 (g/mL). 3 steel balls were put in each tube on a tissue grinder, and the tissue mixture was homogenized at 60 HZ for 60 s, centrifuged at 15000 rpm at 4° C. for 10 minutes, and the supernatant was taken, which was the brain tissue homogenate.
The drug stock solution (0.5 mg/mL) was taken and diluted with acetonitrile to form standard curve working solutions with concentrations of 50, 100, 200, 500, 1000, 2000, 5000, 10000, and 20000 ng/mL, and quality control working solutions with concentrations of 100, 2000, and 10000 ng/mL. 47.5 μL of blank matrix was taken respectively, and 2.5 μL of standard curve working solution and 2.5 μL of quality control working solution were added thereto to prepare standard curve samples with concentrations of 2.5, 5, 10, 25, 50, 100, 250, 500, and 1000 ng/mL and quality control samples with concentrations of 5, 100, and 500 ng/mL. 200 μL of acetonitrile (containing the internal standard of 5 ng/mL of Loratadine) was added thereto respectively, subjected to vortex oscillation for 3 minutes, centrifuged at 15,000 rpm and 4° C. for 10 minutes, and the supernatant was taken and analyzed by LC-MS/MS to obtain a standard curve.
50 μL of brain tissue homogenate sample was taken, added with 200 μL of acetonitrile (containing the internal standard of 5 ng/mL of Loratadine), subjected to vortex oscillation for 3 minutes, centrifuged at 15,000 rpm and 4° C. for 10 minutes, and the supernatant was taken for LC-MS/MS analysis. The standard curve was combined with the analysis to obtain the corresponding concentrations in the brain.

- V1/2 Shift (mV) (KCNQ2/3; test concentration 50 nM): −23.38 mV
- V1/2 Shift (mV) (KCNQ2/3; test concentration 300 nM): −47.60 mV
- activation at 0.05 µM ([2]; test concentration 0.05 μM): 50 to 100%
- activation at 3 µM ([2]; test concentration 3 μM): > 100%
- Concentrations in the brain [3]: 166.1 ng/g
Compound: Cc1cc(N2CCCc3cc(OC(C)C(F)(F)F)ccc3C2)cc(C)c1NC(=O)CC(C)(C)C (stereo not drawn) [Compound 008, N-(2,6-dimethyl-4-(7-((1,1,1-trifluoropropan-2-yl)oxy)-1,3,4,5-tetrahydro-2H-benzo[c]azepin-2-yl)phenyl)-3,3-dimethylbutanamide]
- Protection rate for tonic extension [1]: 90%
